This note sets out measurements from patent publication US10508104B2, “6-hydroxy-5-(phenyl/heteroarylsulfonyl)pyrimidin-4(1H)-one as APJ agonists” (Bristol-Myers Squibb Company, priority 2016, dated 2019).

Usually EC50 stands for the concentration at which the effect is half-maximal.

The experiment addresses human APJ receptor (Homo sapiens (Human), UniProt P35414). As to the kind of experiment: Intracellular cAMP accumulation assay (APJ hcAMP, HTRF). Format: cell-based. The following applies: HEK293 cells stably expressing human APJ receptor; inhibition of forskolin-mediated cAMP production; read-out: Human APJ cAMP EC50 Potency range. Put shortly: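 HEK293 cells stably expressing human APJ, 5,000 per well, incubated 30 min at rt with compound, […] and 2 μM forskolin. cAMP measured by HTRF against a cAMP standard curve as inhibition of forskolin-driven production. EC50 from variable-slope sigmoidal fit.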
A general note: cAMP levels reflect the balance of adenylyl cyclase and phosphodiesterase activity.

human APJ receptor, sequence (P35414 whole entry): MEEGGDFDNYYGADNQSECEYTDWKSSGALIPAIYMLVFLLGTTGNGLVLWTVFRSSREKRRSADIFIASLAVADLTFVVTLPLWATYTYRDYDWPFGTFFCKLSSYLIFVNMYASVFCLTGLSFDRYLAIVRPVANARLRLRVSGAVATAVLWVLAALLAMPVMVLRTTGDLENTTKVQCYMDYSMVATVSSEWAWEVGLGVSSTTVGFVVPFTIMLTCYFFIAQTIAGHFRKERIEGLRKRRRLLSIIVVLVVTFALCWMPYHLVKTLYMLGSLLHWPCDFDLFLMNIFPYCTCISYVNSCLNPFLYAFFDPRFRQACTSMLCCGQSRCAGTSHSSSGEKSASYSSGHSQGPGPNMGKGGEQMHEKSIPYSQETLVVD

Take `COC[C@@H](c1cc(F)cc(F)c1)n1c(COC(C)C)nc(=O)c(S(=O)(=O)c2ccc(-c3cnccc3C#N)cc2)c1O` [Example 407, 3-[4-({1-[(1R)-1-(3,5-difluorophenyl)-2-methoxyethyl]-6-hydroxy-4-oxo-2-[(propan-2-yloxy)methyl]-1,4-dihydropyrimidin-5-yl}sulfonyl)phenyl] pyridine-4-carbonitrile]: the EC50 is 0.01 to 10 nM.

On to `COC[C@@H](c1cc(F)cc(F)c1)n1c(COC(C)C)nc(=O)c(S(=O)(=O)c2ccc(-c3cccn(C)c3=O)cc2)c1O` [Example 408, 1-[(1R)-1-(3,5-difluorophenyl)-2-methoxyethyl]-6-hydroxy-5-[4-(1-methyl-2-oxo-1,2-dihydropyridin-3-yl)benzenesulfonyl]-2-[(propan-2-yloxy)methyl]-1,4-dihydropyrimidin-4-one], for which the concentration giving a half-maximal response (EC50) was in the range of 0.01 to 10 nM.

In the case of `COC[C@@H](c1ccccc1)n1c(COC(C)C)nc(=O)c(S(=O)(=O)c2ccc(-c3cnccc3C#N)c(F)c2)c1O` [Example 409, 3-[2-fluoro-4-({6-hydroxy-1-[(1R)-2-methoxy-1-phenylethyl]-4-oxo-2-[(propan-2-yloxy)methyl]-1,4-dihydropyrimidin-5-yl}sulfonyl)phenyl]pyridine-4-carbonitrile], the EC50 lay in the range of 0.01 to 10 nM. `CC[C@@H](c1cccc(C#N)c1)n1c(COC(C)C)nc(=O)c(S(=O)(=O)c2ccc(-c3cnccc3C#N)cc2)c1O` [Example 410, 3-[4-({1-[(1S)-1-(3-cyanophenyl)propyl]-6-hydroxy-4-oxo-2-[(propan-2-yloxy)methyl]-1,4-dihydropyrimidin-5-yl}sulfonyl)phenyl]pyridine-4-carbonitrile]: the EC50 was in the range of 0.01 to 10 nM. As to `COC[C@@H](c1cccc(C#N)c1)n1c(COC(C)C)nc(=O)c(S(=O)(=O)c2ccc(-c3cnccc3C#N)cc2)c1O` [Example 411, 3-[4-({1-[(1R)-1-(3-cyanophenyl)-2-methoxyethyl]-6-hydroxy-4-oxo-2-[(propan-2-yloxy)methyl]-1,4-dihydropyrimidin-5-yl}sulfonyl)phenyl]pyridine-4-carbonitrile], the half-maximal effective concentration (EC50) fell in the range of 0.01 to 10 nM. As to `CCCCc1nc(=O)c(S(=O)(=O)c2ccc(-c3ccnc(F)c3C)cc2)c(O)n1[C@@H](COC)c1cccc(C(N)=O)c1` [Example 412, 3-[(1R)-1-{2-butyl-5-[4-(2-fluoro-3-methylpyridin-4-yl)benzenesulfonyl]-6-hydroxy-4-oxo-1,4-dihydropyrimidin-1-yl}-2-methoxyethyl]benzamide], the EC50 fell in the range of 0.01 to 10 nM. The same measure for `COC[C@@H](c1ccccc1)n1c(COC(C)C)nc(=O)c(S(=O)(=O)c2ccc(-c3cnccc3C#N)cc2)c1O` [Example 413, 3-[4-({6-hydroxy-1-[(1R)-2-methoxy-1-phenylethyl]-4-oxo-2-[(propan-2-yloxy)methyl]-1,4-dihydropyrimidin-5-yl}sulfonyl)phenyl] pyridine-4-carbonitrile]: 0.01 to 10 nM; for `CC(C)OCc1nc(=O)c(S(=O)(=O)c2ccc(-c3cnccc3C#N)cc2)c(O)n1[C@H](c1cccc(C#N)c1)C1CC1` [Example 414, 3-[4-({1-[(S)-(3-cyanophenyl)(cyclopropyl)methyl]-6-hydroxy-4-oxo-2-[(propan-2-yloxy)methyl]-1,4-dihydropyrimidin-5-yl}sulfonyl)phenyl] pyridine-4-carbonitrile]: 0.01 to 10 nM. The same measure for `Cc1cnccc1-c1ccc(S(=O)(=O)c2c(O)n([C@H](c3cccc(C#N)c3)C3CC3)c(COC(C)C)nc2=O)cc1` [Example 415, 3-[(S)-cyclopropyl({6-hydroxy-5-[4-(3-methylpyridin-4-yl)benzenesulfonyl]-4-oxo-2-[(propan-2-yloxy)methyl]-1,4-dihydropyrimidin-1-yl})methyl]benzonitrile]: 0.01 to 10 nM; for `CC(C)OCc1nc(=O)c(S(=O)(=O)c2ccc(-c3ccncc3C#N)cc2)c(O)n1[C@H](c1cccc(C#N)c1)C1CC1` [Example 416, 4-[4-({1-[(S)-(3-cyanophenyl)(cyclopropyl)methyl]-6-hydroxy-4-oxo-2-[(propan-2-yloxy)methyl]-1,4-dihydropyrimidin-5-yl}sulfonyl)phenyl]pyridine-3-carbonitrile]: 0.01 to 10 nM. For `CC(C)OCc1nc(=O)c(S(=O)(=O)c2ccc(-c3ccc(F)cc3C(N)=O)cc2)c(O)n1[C@H](c1cccc(C#N)c1)C1CC1` [Example 417, 4′-({1-[(S)-(3-cyanophenyl)(cyclopropyl)methyl]-6-hydroxy-4-oxo-2-[(propan-2-yloxy)methyl]-1,4-dihydropyrimidin-5-yl}sulfonyl)-4-fluoro-[1,1′-biphenyl]-2-carboxamide] the value was 0.01 to 10 nM; for `CC(C)OCc1nc(=O)c(S(=O)(=O)c2ccc(-c3ccccc3C(N)=O)cc2)c(O)n1[C@H](c1cccc(C#N)c1)C1CC1` [Example 418, 4′-({1-[(S)-(3-cyanophenyl)(cyclopropyl)methyl]-6-hydroxy-4-oxo-2-[(propan-2-yloxy)methyl]-1,4-dihydropyrimidin-5-yl}sulfonyl)-[1,1′-biphenyl]-2-carboxamide], 0.01 to 10 nM. Regarding `Cc1c(-c2ccc(S(=O)(=O)c3c(O)n([C@H](c4cccc(C#N)c4)C4CC4)c(COC(C)C)nc3=O)cc2)ccnc1F` [Example 419, 3-[(S)-cyclopropyl({5-[4-(2-fluoro-3-methylpyridin-4-yl)benzenesulfonyl]-6-hydroxy-4-oxo-2-[(propan-2-yloxy)methyl]-1,4-dihydropyrimidin-1-yl})methyl]benzonitrile], the EC50 lay in the range of 0.01 to 10 nM. For `CNC(=O)c1ccccc1-c1ccc(S(=O)(=O)c2c(O)n([C@H](c3cccc(C#N)c3)C3CC3)c(COC(C)C)nc2=O)cc1` [Example 420, 4′-({1-[(S)-(3-cyanophenyl)(cyclopropyl)methyl]-6-hydroxy-4-oxo-2-[(propan-2-yloxy)methyl]-1,4-dihydropyrinudin-5-yl}sulfonyl)-N-methyl-[1,1′-biphenyl]-2-carboxamide], the EC50 is 0.01 to 10 nM. In the case of `CCOCc1nc(=O)c(S(=O)(=O)c2ccc(-c3ccccc3C(=O)NC)cc2)c(O)n1[C@H]1CCc2ccccc21` [Example 421, 4′-({1-[(1S)-2,3-dihydro-1H-inden-1-yl]-2-(ethoxymethyl)-6-hydroxy-4-oxo-1,4-dihydropyrimidin-5-yl}sulfonyl)-N-methy1-[1,1′-biphenyl]-2-carboxamide], the EC50 was in the range of 0.01 to 10 nM. For the compound `CC[C@@H](c1ccccc1)n1c(COC(C)C)nc(=O)c(S(=O)(=O)c2ccc(-c3ccccc3C(=O)NC)cc2)c1O` [Example 422, 4′-({6-hydroxy-4-oxo-1-[(1S)-1-phenylpropyl]-2-[(propan-2-yloxy)methyl]-1,4-dihydropyrimidin-5-yl}sulfonyl)-N-methy1-[1,1′-biphenyl]-2-carboxamide], the 50% effective concentration (EC50) fell in the range of 0.01 to 10 nM. Regarding `CCCCc1nc(=O)c(S(=O)(=O)c2ccc(-c3ccncc3C)cc2)c(O)n1[C@@H](CC)c1ccc(F)cc1` [Example 423, 2-butyl-1-[(1S)-1-(4-fluorophenyl)propyl]-6-hydroxy-5-[4-(3-methylpyridin-4-yl)benzenesulfonyl]-1,4-dihydropyrimidin-4-one], the concentration giving a half-maximal response (EC50) fell in the range of 0.01 to 10 nM.

`CCCCc1nc(=O)c(S(=O)(=O)c2ccc(-c3ccnc(F)c3C)cc2)c(O)n1[C@@H](CC)c1ccc(F)cc1` [Example 424, 2-butyl-5-[4-(2-fluoro-3-methylpyridin-4-yl)benzenesulfonyl]-1-[(1S)-1-(4-fluorophenyl)propyl]-6-hydroxy-1,4-dihydropyrimidin-4-one]: the EC50 was in the range of 0.01 to 10 nM. `CCCCc1nc(=O)c(S(=O)(=O)c2ccc(-c3cccnc3C)cc2)c(O)n1[C@@H](CC)c1ccc(F)cc1` [Example 425, 2-butyl-1-[(1S)-1-(4-fluorophenyl)propyl]-6-hydroxy-5-[4-(2-methylpyridin-3-yl)benzenesulfonyl]-1,4-dihydropyrimidin-4-one]: the EC50 was in the range of 0.01 to 10 nM.

In the case of `CCCCc1nc(=O)c(S(=O)(=O)c2ccc(-c3ccc(F)nc3C)cc2)c(O)n1[C@@H](CC)c1ccc(F)cc1` [Example 426, 2-butyl-5-[4-(6-fluoro-2-methylpyridin-3-yl)benzenesulfonyl]-1-[(1S)-1-(4-fluorophenyl)propyl]-6-hydroxy-1,4-dihydropyrimidin-4-one], the 50% effective concentration (EC50) was 0.01 to 10 nM. In the case of `CCCCc1nc(=O)c(S(=O)(=O)c2ccc(-c3ccncc3C)cc2)c(O)n1[C@@H](CC)c1cc(F)cc(F)c1` [Example 427, 2-butyl-1-[(1S)-1-(3,5-difluorophenyl)propyl]-6-hydroxy-5-[4-(3-methylpyridin-4-yl)benzenesulfonyl]-1,4-dihydropyrimidin-4-one], the EC50 is 0.01 to 10 nM. Take `CCCCc1nc(=O)c(S(=O)(=O)c2ccc(-c3cccnc3C)cc2)c(O)n1[C@@H](CC)c1ccccc1F` [Example 430, 2-butyl-1-[(1S)-1-(2-fluorophenyl)propyl]-6-hydroxy-5-[4-(2-methylpyridin-3-yl)benzenesulfonyl]-1,4-dihydropyrimidin-4-one]: the concentration giving a half-maximal response (EC50) fell in the range of 0.01 to 10 nM.

Consider `CCCCc1nc(=O)c(S(=O)(=O)c2ccc(-c3ccc(F)nc3C)cc2)c(O)n1[C@@H](CC)c1ccccc1F` [Example 431, 2-butyl-5-[4-(6-fluoro-2-methylpyridin-3-yl)benzenesulfonyl]-1-[(1S)-1-(2-fluorophenyl)propyl]-6-hydroxy-1,4-dihydropyrimidin-4-one], for which the EC50 is 0.01 to 10 nM. Take `CCCCc1nc(=O)c(S(=O)(=O)c2ccc(-c3ccnc(F)c3C)cc2)c(O)n1[C@@H](CC)c1ccccc1F` [Example 432, 2-butyl-5-[4-(2-fluoro-3-methylpyridin-4-yl)benzenesulfonyl]-1-[(1S)-1-(2-fluorophenyl)propyl]-6-hydroxy-1,4-dihydropyrimidin-4-one]: the half-maximal effective concentration (EC50) is 0.01 to 10 nM. Regarding `CCCCc1nc(=O)c(S(=O)(=O)c2ccc(-c3ccc(F)nc3C)cc2)c(O)n1[C@@H](CC)c1cc(F)cc(F)c1` [Example 433, 2-butyl-1-[(1S)-1-(3,5-difluorophenyl)propyl]-5-[4-(6-fluoro-2-methylpyridin-3-yl)benzenesulfonyl]-6-hydroxy-1,4-dihydropyrimidin-4-one], the concentration giving a half-maximal response (EC50) was 0.01 to 10 nM.
